Experiments:
[1] = system: Escherichia coli; experiment: Qualitative dye staining on agarose pads (EVOS M7000); format: cell-based; design: key to Relative fluorescent intensity: Very high: If the cells looked twice as big in the fluorescent channel, it was marked as having “very high” relative fluorescent intensity; High: if the cells looked bigger in the fluorescent channel, it was marked as having “high” relative fluorescent intensity; Medium: If the cells looked almost the same size in the fluorescent channel and the bright field, it was marked as having “medium” relative fluorescent intensity; Low: If the cells looked smaller in the fluorescent channel as compared to the brightfield but still the whole cell was visible, it was marked as having “low” relative fluorescent intensity; Negligible: If only a few traces of a cell was visible in the fluorescent channel, it was marked as having “negligible” relative fluorescent intensity; settings: DiSC3(5) 3 μM, SYBR Green I 10×, SYTO 13 3 μM, FM4-64 15 μM
[2] = system: Klebsiella pneumoniae; experiment: as above; format: cell-based; design: key to Relative fluorescent intensity: Very high: If the cells looked twice as big in the fluorescent channel, it was marked as having “very high” relative fluorescent intensity; High: if the cells looked bigger in the fluorescent channel, it was marked as having “high” relative fluorescent intensity; Medium: If the cells looked almost the same size in the fluorescent channel and the bright field, it was marked as having “medium” relative fluorescent intensity; Low: If the cells looked smaller in the fluorescent channel as compared to the brightfield but still the whole cell was visible, it was marked as having “low” relative fluorescent intensity; Negligible: If only a few traces of a cell was visible in the fluorescent channel, it was marked as having “negligible” relative fluorescent intensity; settings: DiSC3(5) 3 μM, SYBR Green I 10×, SYTO 13 3 μM, FM4-64 15 μM
[3] = Table 6 thresholds, Escherichia coli
[4] = Table 7 commercial strain E. coli SEC 27
[5] = Table 7 commercial strain E. coli SEC 93
[6] = Table 8 sample Escherichia coli (051)
[7] = Table 8 sample Escherichia coli (052)
[8] = Table 8 sample Escherichia coli (053)
[9] = Table 7 commercial strain Klebsiella pneumoniae NCTC 9633
[10] = Table 7 commercial strain Klebsiella pneumoniae NCTC 14335
[11] = Table 8 sample Klebsiella pneumoniae (094)
[12] = Table 8 sample Klebsiella pneumoniae (095)

SMILES	Percentage of cells stained [1, 3]	Relative fluorescent intensity [1, 3]	Percentage of cells stained [1, 4]	Relative fluorescent intensity [1, 4]	Percentage of cells stained [1, 5]	Relative fluorescent intensity [1, 5]	Percentage of cells stained [1, 6]	Relative fluorescent intensity [1, 6]	Percentage of cells stained [1, 7]	Relative fluorescent intensity [1, 7]	Percentage of cells stained [1, 8]	Relative fluorescent intensity [1, 8]	Percentage of cells stained [2, 9]	Relative fluorescent intensity [2, 9]	Percentage of cells stained [2, 10]	Relative fluorescent intensity [2, 10]	Percentage of cells stained [2, 11]	Relative fluorescent intensity [2, 11]	Percentage of cells stained [2, 12]	Relative fluorescent intensity [2, 12]
CCCN1C(=CC=CC=Cc2sc3ccccc3[n+]2CCC)Sc2ccccc21.[I-] [DiSC3(5), 3,3′-Dipropylthiadicarbocyanine Iodide]	Almost all	Medium	Almost all	Medium	Almost all	Medium	Almost all	Medium	Almost all	Medium	Almost all	Medium	Half	Low	Almost all	Low	Half	Low	Almost all	Low
CCN(CC)c1ccc(C=CC=CC=Cc2cc[n+](CCC[N+](CC)(CC)CC)cc2)cc1.[Br-].[Br-] [FM 4-64, N-(3-Triethylammoniumpropyl)-4-(6-(4-(Diethylamino) Phenyl) Hexatrienyl) Pyridinium Dibromide]	Almost all	Medium	Almost all	Medium	Almost all	Medium	Almost all	Medium	Almost all	Medium	Almost all	Medium	Few	Low	Half	Low	Few	Low	Few	Low
CCCN(CCCN(C)C)c1cc(/C=C2/Sc3ccccc3N2C)c2ccccc2[n+]1-c1ccccc1 [SYBR Green I, N′,N′-dimethyl-N-[4-[(E)-(3-methyl-1,3-benzothiazol-2-ylidene)methyl]-1-phenylquinolin-1-ium-2-yl]-N-propylpropane-1,3-diamine]	Almost all	Medium	Almost all	Medium	Almost all	Medium	Almost all	Medium	Almost all	Medium	Almost all	Medium	Half	Low	Almost all	Low	Half	Low	Almost all	Low

Source: US20250052744A1, “Dyes and Uses Thereof” (The University of Liverpool, priority 2021, published 2025)
